Laboratory results from ChEMBL document CHEMBL1135425, “Antitumor agents. 213. Modeling of epipodophyllotoxin derivatives using variable selection k nearest neighbor QSAR method” (J Med Chem, 2002).

Experiments:
[1] = target: T1, DNA topoisomerase II (Homo sapiens) (UniProt P11388+Q02880); test: Ability to form intracellular covalent DNA topoisomerase II complex; activity expressed as the percentage of cellular protein-DNA complex formed (exp-1); format: cell-based
Nucleic Acid = test: Ability to form intracellular covalent DNA topoisomerase II complex; activity expressed as the percentage of cellular protein-DNA complex formed (exp-2); format: functional, cell-based
[2] = target: T1, DNA topoisomerase II (Homo sapiens); test: Percentage of intracellular covalent DNA-topoisomerase II complexes formed; format: cell-based

| Structure (SMILES) | Complex formation [1] [%] | Complex formation (Nucleic Acid) [%] | Complex formation [2] [%] |
| --- | --- | --- | --- |
| COc1cc([C@@H]2c3cc4c(cc3C(Nc3ccccc3)[C@H]3COC(=O)[C@H]23)OCO4)cc(O)c1O (stereo not given in full) | 105 | 128 | – |
| COc1cc([C@@H]2c3cc4c(cc3[C@@H](NC(C)C)[C@H]3COC(=O)[C@H]23)OCO4)cc(OC)c1O | – | – | 109 |
| COc1cc2c(cc1OC)[C@@H](c1cc(OC)c(O)c(OC)c1)[C@H]1C(=O)OC[C@@H]1C2Nc1ccc(F)cc1 (stereo not given in full) | – | – | 108 |
| COc1cc([C@@H]2c3cc(O)c(O)cc3C(Nc3ccc(C#N)cc3)[C@H]3COC(=O)[C@H]23)cc(OC)c1O (stereo not given in full) | – | – | 62 |
| COC(=O)c1cccc(NC2c3cc4c(cc3[C@@H](c3cc(O)c(O)c(OC)c3)[C@H]3C(=O)OC[C@H]23)OCO4)c1 (stereo not given in full) | – | – | 94 |
| COc1cc([C@@H]2c3cc4c(cc3[C@@H](NCc3ccccc3N)[C@H]3COC(=O)[C@H]23)OCO4)cc(OC)c1O | – | – | 184 |
| COc1cc([C@@H]2c3cc4c(cc3[C@@H](NCc3ccc([N+](=O)[O-])cc3)[C@H]3COC(=O)[C@H]23)OCO4)cc(OC)c1O | – | – | 216 |
| CCOC(=O)c1ccc(NC2c3cc(O)c(O)cc3[C@@H](c3cc(OC)c(O)c(OC)c3)[C@H]3C(=O)OC[C@H]23)cc1 (stereo not given in full) | – | – | 138 |
| COC1=CC([C@@H]2c3cc4c(cc3C(NC(=O)N(CCCl)N=O)[C@H]3COC(=O)[C@H]23)OCO4)=CC(=O)C1=O (stereo not given in full) | – | – | 7 |
| COc1cc([C@@H]2c3cc4c(cc3[C@@H](Nc3ccc5c(c3)OCCO5)[C@H]3COC(=O)[C@H]23)OCO4)cc(OC)c1O | – | – | 279 |
| CNC(=O)N[C@@H]1c2cc3c(cc2[C@@H](c2cc(OC)c(O)c(OC)c2)[C@H]2C(=O)OC[C@@H]21)OCO3 | – | – | 81 |
| COc1cc([C@@H]2c3cc4c(cc3[C@@H](Nc3ccc(-c5nc6ccccc6[nH]5)cc3)[C@H]3COC(=O)[C@H]23)OCO4)cc(OC)c1O | – | – | 128 |
| COc1cc(N[C@@H]2c3cc4c(cc3[C@@H](c3cc(OC)c(O)c(OC)c3)[C@H]3C(=O)OC[C@@H]32)OCO4)c(C)cc1[N+](=O)[O-] | – | – | 3.5 |
| COc1cc([C@@H]2c3cc4c(cc3[C@@H](NCCO)[C@H]3COC(=O)[C@H]23)OCO4)cc(OC)c1O | – | – | 121 |
